The target in assay [1] is T1, PcrV (Pseudomonas aeruginosa, UniProt G3XD49). The assay is described as follows: SPR dose-response binding to immobilized PcrV (equilibrium analysis).
Assay [2] has as its system P. aeruginosa strain PAK. The assay can be described thus: Bacterial toxicity (growth) assay, OD600. Type of assay: cell-based, Pseudomonas aeruginosa. As to conditions: 200, 100, 50 and 25 µM; OD600 for 8 h. Here is the method:
Overnight culture of the P. aeruginosa strain PAK was diluted in LB (Luria Broth) to an OD600 of 0.2. The bacteria were added into microtiter plates, and 25, 50, 100, and 200 µM of the potential binders were added in triplicates to the bacteria with a final concentration of 1% DMSO. […] Wells with 1% DMSO without substance were used as positive controls.

The target of assay [3] is T1, PcrV. The assay is described as follows: 1H NMR relaxation-edited binding experiment. As to conditions: compound 100 µM, PcrV 10 µM. As for the experimental part:
A solution containing 100 µM of the small molecule was prepared from 20 mM stock solution of the tested compound in DMSO and diluted in PBS (pH 7.4) containing trimethylsilyl propanoic acid (TMSP) as an internal standard. This solution was then split into halves and used for preparation of the test and the reference samples as follows: the test sample was prepared by adding 24 µL of 0.211 mM PcrV protein stock solution, resulting in a final protein concentration of 10 µM, whereas the reference sample was prepared by adding the corresponding volume of PBS buffer only before being transferred to 5-mm NMR tubes. The relaxation-edited experiments shown in Figure 3D were recorded on Bruker 600 MHz, and data were acquired at 298 K. Data from 256 scans were accumulated, and a Carr-Purcell-Meiboom-Gill (cpmg) spin-lock of 200 ms was used. Excitation sculpture was applied for water suppression.
To confirm the binding data obtained from the SPR, a secondary qualitative label-free binding experiment based on ^1H-NMR was performed.

Where [4] appears, read: KD ± standard error of KD (Table S1), single experiment, standard error from ProteOn Manager software.
[5] abbreviates: SPR KD, equilibrium analysis, mean ± SD of three or more independent experiments, individual values where n < 3, 25 °C, PBST 5% DMSO.

The values that follow come from paper PMC7824769, “Identification of Small Molecules Blocking the Pseudomonas aeruginosa Type III Secretion System Protein PcrV” (Biomolecules, 2021).

The structures appear in SMILES notation. Values joined by “and” are separate entries in the source; they are usually repeats but may differ in a detail not shown here. Equal entries are not always repeated. Some results are limits rather than exact numbers.

T1 sequence (G3XD49 entry or part of it): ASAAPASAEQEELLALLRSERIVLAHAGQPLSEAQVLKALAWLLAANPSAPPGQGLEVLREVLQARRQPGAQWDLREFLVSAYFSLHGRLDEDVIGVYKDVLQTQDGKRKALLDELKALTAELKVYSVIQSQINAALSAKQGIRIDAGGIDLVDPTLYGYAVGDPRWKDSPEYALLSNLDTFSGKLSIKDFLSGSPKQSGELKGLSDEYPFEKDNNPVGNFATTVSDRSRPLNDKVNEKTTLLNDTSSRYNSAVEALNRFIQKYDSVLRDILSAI

As to `Cc1c(Br)ccc(OC[C@@H]2C[C@H]2C(=O)O)c1C` (relative stereo) [Compound 32], the dissociation constant Kd was 61.1 ± 16.9 µM in assay [1] (setting [4]); ~60 µM and 61 to 63 µM and 61 µM in assay [1] (setting [5]). In addition, the “Rmax (Table S1)” value in assay [1] (single experiment) turned out to be 81.8. The “Effect on bacterial growth” value in assay [2] is recorded as “without affecting bacterial growth”.
In the case of `Cc1c(Br)ccc(OC[C@@H]2C[C@@H]2C(=O)O)c1C` (relative stereo) [Compound 33], the Kd in assay [1] (setting [4]) was 59.5 ± 11.1 µM; in assay [1] (setting [5]) it was ~60 µM and 61 to 63 µM and 63 µM. Also, the “Rmax (Table S1)” value in assay [1] (single experiment) was 76.8. Further, in assay [2], the “Effect on bacterial growth” value is given as “without affecting bacterial growth”.
Take `Cc1c(Br)ccc(OCCCC(=O)O)c1C` [Compound H1]: the “1H NMR binding to PcrV (qualitative)” value in assay [3] was “signal reduction”. Besides, the Kd in assay [1] (KD (equilibrium analysis, Figure 3B), one representative experiment, binding levels at 45-55 s) is 98.3 µM; in assay [1] (setting [5]), < 150 µM and 106 µM. Also, in assay [1] (one representative experiment), the “Rmax (equilibrium analysis, Figure 3B)” value was 71.3 RU.

As usually defined, the Kd is the concentration at which binding is half-saturated.
